Measurements: patent publication US5137811A, “Method for diagnosing periodontal diseases with a substrate specific for aminopeptidase activity of periodontopathic bacteria” (Sunstar Kabushiki Kaisha, priority 1986, dated 1992)
*1 amine or outer side, *2 acyl side, *3 side chain or, on linkers, in order; H or OH if unused. Where a SMILES comes first, the peptide text is derived from it. The star is where a group is joined. Suc = O=C(CCC(=O)[*:2])[*:1]; βNA = c1ccc2cc(N*)ccc2c1; Cbz = O=C(OCc1ccccc1)*; Bz = O=C(c1ccccc1)*

What was measured:
Assay in all cases: Hydrolytic activity of cell suspension on aminopeptidase substrates (Experiment 2)
Assay type in all cases: cell-based
Actinomyces israelli = details: two strains, Table 2
Method: (§1) The strains of Treponema were anaerobically cultivated using TYGVS media at 37° C. for 7 days, while other bacterial strains were cultivated using brain heart infusion broth at 37° C. for 48 to 72 hours. Each culture was diluted to obtain a bacterial cell suspension, the absorption at 660 nm of which was 1.0.
(§2) Substrate compounds for aminopeptidase enzyme having various color developing groups derived from β-naphthylamine were dissolved in 0.1M Tris-HCl buffer (pH 7.0) at the concentration of 0.2 mM to obtain substrate solutions.
(§3) To the substrate solution (1.5 ml) was added the above cell suspension (0.3 ml) and reacted at 37° C. for 60 minutes. After completion of the reaction, a coloring reagent [prepared by dissolving diazonium salt of Garnet GBC in 1M acetate buffer (containing 10% Tween 20, pH: 4.2) at the concentration of 0.5 mg/ml] was added and, after 15 minutes, the absorption at 525 nm was determined with a spectrophotometer.
(§4) On the basis of the average amount of released β-naphthylamine in each strain, the hydrolytic activity was expressed as follows: […]
(§5) According to the same manner as described in Experiment 1, periodontopathic bacteria specific aminopeptidase activity was tested by using four strains of Treponema denticola, five strains of B. gingivalis, three strains of B. intermedius, two strains of B. melaninogenicus, two strains of Actinomyces israelli, four strains of Actinobacillus actinomycetemcomitans and three strains of Fusobacterium nucleatum. Abbreviations used in Table 2 mean the following substrate compounds.

B. melaninogenicus = details: two strains, Table 2
Method: as §1, §2, §3, §4, §5

B. denticola = details: Table 2
Method: as §1, §2, §3, §4, §5

B. intermedius = details: three strains, Table 2
Method: as §1, §2, §3, §4, §5

B. gingivalis = details: five strains, Table 2
Method: as §1, §2, §3, §4, §5

Treponema denticola = details: four strains, Table 2
Method: as §1, §2, §3, §4, §5

Fusobacterium nucleatum = details: three strains, Table 2
Method: as §1, §2, §3, §4, §5

[1] = test system: Actinobacillus actinomycetemcomitans; details: four strains, Table 2
Method: as §1, §2, §3, §4, §5

B. corporis = details: Table 2
Method: as §1, §2, §3, §4, §5

SMILES | hydrolytic activity (average amount of released β-naphthylamine) (Actinomyces israelli) | hydrolytic activity (average amount of released β-naphthylamine) (B. melaninogenicus) | hydrolytic activity (average amount of released β-naphthylamine) (B. denticola) | hydrolytic activity (average amount of released β-naphthylamine) (B. intermedius) | hydrolytic activity (average amount of released β-naphthylamine) (B. gingivalis) | hydrolytic activity (average amount of released β-naphthylamine) (Treponema denticola) | hydrolytic activity (average amount of released β-naphthylamine) (Fusobacterium nucleatum) | hydrolytic activity (average amount of released β-naphthylamine) [1] | hydrolytic activity (average amount of released β-naphthylamine) (B. corporis)
N[C@@H](Cc1ccccc1)C(=O)N1CCC[C@H]1C(=O)Nc1ccc2ccccc2c1 [FP, phenylalanyl-proline-β-naphthylamide] (H-Phe-Pro-βNA) | - (release amount<5 nmol/ml) | + (10 ≤release amount<20 nmol/ml) | + (10 ≤release amount<20 nmol/ml) | + (10 ≤release amount<20 nmol/ml) | ++ (20 ≤release amount<40 nmol/ml) | ++ (20 ≤release amount<40 nmol/ml) | - (release amount<5 nmol/ml) | - (release amount<5 nmol/ml) | + (10 ≤release amount<20 nmol/ml)
CC(C)[C@H](NC(=O)OCc1ccccc1)C(=O)N[C@@H](CCCCN)C(=O)N1CCC[C@H]1C(=O)Nc1ccc2ccccc2c1 [CxVKP, N-carbobenzoxy-valyl-lysyl-proline-β-naphthylamide] (Cbz-Val-Lys-Pro-βNA) | - (release amount<5 nmol/ml) | ++ (20 ≤release amount<40 nmol/ml) | ++ (20 ≤release amount<40 nmol/ml) | ++ (20 ≤release amount<40 nmol/ml) | ++ (20 ≤release amount<40 nmol/ml) | ++ (20 ≤release amount<40 nmol/ml) | - (release amount<5 nmol/ml) | - (release amount<5 nmol/ml) | ++ (20 ≤release amount<40 nmol/ml)
CC(C)C[C@H](N)C(=O)NCC(=O)Nc1ccc2ccccc2c1 [LG, leucyl-glycine-β-naphthylamide, reference compound] (H-Leu-Gly-βNA) | - (release amount<5 nmol/ml) | +++ (release amount≥40 nmol/ml) | ++ (20 ≤release amount<40 nmol/ml) | - (release amount<5 nmol/ml) | + (10 ≤release amount<20 nmol/ml) | - (release amount<5 nmol/ml) | - (release amount<5 nmol/ml) | - (release amount<5 nmol/ml) | ++ (20 ≤release amount<40 nmol/ml)
O=C(CNC(=O)c1ccccc1)N[C@@H](Cc1ccccc1)C(=O)N1CCC[C@H]1C(=O)Nc1ccc2ccccc2c1 [BzGFP, N-benzoyl-glycyl-phenylalanyl-proline-β-naphthylamide] (Bz-Gly-Phe-Pro-βNA) | - (release amount<5 nmol/ml) | ++ (20 ≤release amount<40 nmol/ml) | ++ (20 ≤release amount<40 nmol/ml) | +++ (release amount≥40 nmol/ml) | ++ (20 ≤release amount<40 nmol/ml) | +++ (release amount≥40 nmol/ml) | - (release amount<5 nmol/ml) | - (release amount<5 nmol/ml) | ++ (20 ≤release amount<40 nmol/ml)
O=C(NCC(=O)N1CCC[C@H]1C(=O)Nc1ccc2ccccc2c1)c1ccccc1 [BzGP, N-benzoyl-glycyl-proline-β-naphthylamide] (Bz-Gly-Pro-βNA) | - (release amount<5 nmol/ml) | ++ (20 ≤release amount<40 nmol/ml) | ++ (20 ≤release amount<40 nmol/ml) | +++ (release amount≥40 nmol/ml) | ++ (20 ≤release amount<40 nmol/ml) | ++ (20 ≤release amount<40 nmol/ml) | - (release amount<5 nmol/ml) | - (release amount<5 nmol/ml) | ++ (20 ≤release amount<40 nmol/ml)
O=C(Nc1ccc2ccccc2c1)[C@@H]1CCCN1 [P, proline-β-naphthylamide, reference compound] | - (release amount<5 nmol/ml) | - (release amount<5 nmol/ml) | - (release amount<5 nmol/ml) | - (release amount<5 nmol/ml) | - (release amount<5 nmol/ml) | + (10 ≤release amount<20 nmol/ml) | - (release amount<5 nmol/ml) | - (release amount<5 nmol/ml) | - (release amount<5 nmol/ml)
N[C@@H](CO)C(=O)N[C@@H](Cc1ccc(O)cc1)C(=O)Nc1ccc2ccccc2c1 [SY, seryl-tyrosine-β-naphthylamide, reference compound] (H-Ser-Tyr-βNA) | - (release amount<5 nmol/ml) | ± (5 ≤release amount<10 nmol/ml) | ± (5 ≤release amount<10 nmol/ml) | - (release amount<5 nmol/ml) | ++ (20 ≤release amount<40 nmol/ml) | - (release amount<5 nmol/ml) | - (release amount<5 nmol/ml) | - (release amount<5 nmol/ml) | ± (5 ≤release amount<10 nmol/ml)
CC(C)[C@H](N)C(=O)N[C@@H](C)C(=O)Nc1ccc2ccccc2c1 [VA, valyl-alanine-β-naphthylamide, reference compound] (H-Val-Ala-βNA) | - (release amount<5 nmol/ml) | ± (5 ≤release amount<10 nmol/ml) | ± (5 ≤release amount<10 nmol/ml) | - (release amount<5 nmol/ml) | ++ (20 ≤release amount<40 nmol/ml) | - (release amount<5 nmol/ml) | - (release amount<5 nmol/ml) | - (release amount<5 nmol/ml) | ± (5 ≤release amount<10 nmol/ml)
CC(C)C[C@H](NC(=O)[C@@H]1CCCN1C(=O)CNC(=O)CCC(=O)O)C(=O)NCC(=O)N1CCC[C@H]1C(=O)Nc1ccc2ccccc2c1 [ScGPLGP, N-succinyl-glycyl-prolyl-leucyl-glycyl-proline-β-naphthylamide] (Suc-GPLGP-βNA) | - (release amount<5 nmol/ml) | ± (5 ≤release amount<10 nmol/ml) | ± (5 ≤release amount<10 nmol/ml) | + (10 ≤release amount<20 nmol/ml) | ± (5 ≤release amount<10 nmol/ml) | + (10 ≤release amount<20 nmol/ml) | - (release amount<5 nmol/ml) | - (release amount<5 nmol/ml) | ± (5 ≤release amount<10 nmol/ml)
